Reference: patent EP2862852B1, “Urea derivatives for the protection of stem cells” (Symrise AG, priority 2013, dated 2015)
Like-named read-outs stand apart in the source and are kept apart here.

Legend:
20S proteasome = molecular target: T1, 20S proteasome (Homo sapiens, UniProt P28074); assay: 20S Proteasome Assay (in vitro), chymotrypsin-like protease activity in NHDF cells; format: cell-based; settings: 72 h
T1 construct: NHDF (normal human dermal fibroblasts) cells are disseminated in a 96-well microtiter plate; endogenous in cells; host or cells: NHDF (normal human dermal fibroblasts)

SIRT1 = SIRT1 assay (in vitro), SIRT1 expression by immunofluorescence in NHDF cells; format: cell-based, human; settings: 10 µM, 48 h, mean values of at least 2 independent experiments
Method: NHDF cells (normal human dermal fibroblasts) were seeded in 96-well plates. After 24 h cultivation at 37 °C and 5% CO2 in DMEM (Dulbecco's Modified Eagle Medium), cells were treated with test substances for another 48 h. After washing the cells with PBS (phosphate buffered saline), the cells were fixed with paraformaldehyde and permeabilized. Then they were washed again and blocked with BSA (bovine serum albumen), followed by incubation with […]. After extensive washing, the fluorescence is measured in a microplate reader and fluorescence images were recorded on a fluorescence microscope with an attached […].
The stimulation of SIRT1 expression was calculated by: Stimulation of SIRT1expression[%] = ((RFU test substance−RFU background)/(RFU control−RFU background) × 100)−100 [formula] • RFU test substance = relative fluorescent units of the wells with test substance, stained completely • RFU control = relative fluorescent units of the wells without test substance, stained completely • RFU background = relative fluorescent units of the wells without test substance, stained only with secondary antibody.

[1] = test system: B16V mouse melanoma cells; assay: Depigmentation effect on melanoma cell cultures; format: cell-based; settings: 0.6 mM tyrosine and 10 nM α-MSH, 96 h, read-out: IC50, inhibition of pigmentation
Method: B16V mouse melanoma cells are disseminated in a 96-well micro-titre plate in a concentration of 7.5 x 10^3 cells/well. After cultivation for 24 h at 37°C and 5% CO2 in RPMI medium, enriched with 10% foetal calf serum, various concentrations of the test substances and 0.6 mM tyrosine and 10 nM α-MSH (α-melanocyte stimulating hormone) are added and incubated for a further 96 h. The maximum concentration of the test substances used corresponds to 0.1 times the value of the IC20 value of the cytotoxicity assay. Only tyrosine and α-MSH are added to the controls. After incubation, sodium hydroxide solution (final concentrations: 1 M) is added to the culture medium and the absorption (A) is measured after 3 h at 400 nm.
From the inhibition of pigmentation (%) in a series of dilutions of test compounds, the IC50 for each test compound is calculated. This is the concentration of a test compound at which pigmentation is inhibited by 50%.

Hyaluronic acid = assay: Hyaluronic Acid Assay (in vitro), competitive ELISA in NHDF cells; format: cell-based, human; settings: 72 h
Method: NHDF (normal human dermal fibroblasts) cells were disseminated in a 96-well microtiter plate in a concentration of 2 x 10^4 cells/well (DMEM, 10% FCS). After cultivation in fully enriched medium (DMEM, 10% FCS) for 48 h at 37°C and 5% CO2, the serum content was reduced to 0.1% to synchronize the cell cycle. Various concentrations of the test substances and TGF-beta1 as internal standard are added and incubated for a further 72 h. The maximum concentration of the test substances used corresponds to 0.2 times the value of the IC20 value of the cytotoxicity assay. Hyaluronic acid is quantified by a competitive ELISA (TECOmedical TE1017).
The percent bound for each standard and unknown substance is calculated using the following equation: HA_[ng/ml] = (Astandardortestsubstance −Ablank)/(Azerostandard −Ablank) [formula] The abbreviations have the following meanings: • A(standard or test substance): Absorption of the wells with standard or test substance • A(zero standard): Absorption of the wells without HA standard • A(blank): Absorption of the wells without antibody, without peroxidase conjugate A standard curve is generated by plotting the percent B/ B0 as a function of the log HA concentration. The HA amount in the unknown samples is calculated by interpolating from the percent B / B0 values to […]. InductionofHA[%] = ((HAtestsubstance −HAwithoutcells)/(HAcontrol −HAwithoutcells) × 100) [formula] The abbreviations have the following meanings: • HA test substance: Amount of HA of the wells with test substance and with cells • HA control: Amount of HA of the wells without test substance, but with cells • HA without cells Amount of HA of the wells without cells

[2] = test system: HHFSC (Human Hair Follicle Stem Cells); assay: Stem cell protection (in vitro): inhibition of UVB-induced apoptosis, caspase 3/7 chemiluminescence; format: cell-based; settings: light or radiation study, 25 mJ/cm^2 UVB, relative to control, read-out: Inhibition of UV induced apoptosis
Method: HHFSC (Human Hair Follicle Stem Cells) isolated from hair follicle bulge (Celprogen) were cultivated in culture ware pre-coated with Human Hair Follicle Stem Cell Extra-cellular Matrix (Celprogen). The cells were incubated 2 h prior to and 16 h after UVB irradiation with test compounds. Cells were irradiated with 25 mJ/cm^2 UVB in the presence of buffer solution. Apoptosis induction was evaluated by caspase 3/7 protein expression (Caspase-Glo 3/7, Promega) and quantified by chemiluminescence measurement.

Heme oxygenase-1 = Heme oxygenase-1 expression (in vitro), Western blot in NHDF cells; format: cell-based, human; settings: 24 h
Method: NHDF (normal human dermal fibroblasts) cells were disseminated in a 6-well plate. After cultivation in fully enriched medium (DMEM, 10% FCS) for 48 h, the serum content was reduced to 0.1% to synchronize the cell cycle. Various concentrations of the test substances, the negative control (untreated cells) and tert.- butylhydrochinon as positive control, are added and incubated for a further 24 h. After cell lysis, the protein amount was determined using the Biorad BCA assay. All samples were adjusted to the same protein level before application on a fast Criterion Gel (Biorad) to perform electrophoresis for 20 minutes at 300 V. Thereafter the proteins were transferred to a PVDF membrane on a semi-dry blotter (30 minutes, 25 V). The blotted membrane is blocked for 4 hours in a 5% milk powder solution in TBST at 4°C. After washing, the membrane is incubated with the first antibody solution HO-1 from abcam (1:500 in 1% milk powder in TBST) over night. After this, washing is repeated and the membrane has to be incubated for 1 h in the second antibody solution (goat anti mouse coupled to HRP; 1:800 in 1% milk powder). […] The resulting band pattern is detected with a chemiluminescence sensitive camera system (Vilber Loumat). The quantification was done by densitometry. The up-regulation is calculated relative to control.

Row | Molecule | 20S proteasome stimulation relative to control (20S proteasome; 600 µM) [%] | SIRT1 protein induction (SIRT1) [%] | IC50 ([1]; Mus musculus) [µM] | also measured
1 | O=C(NC1CCCCC1)NC1CCCCC1 [Compound 1, 1,3-dicyclohexylurea] | 83 | 34 | – | –
2 | OC[C@H]1O[C@@H](Oc2ccc(O)cc2)[C@H](O)[C@@H](O)[C@@H]1O [beta-Arbutin, reference compound] | – | – | – | IC50 [1]: 67 µM
3 | CCCCC(CC)CNC(=O)NC1CCCCC1 (stereo not drawn) [Compound 5, 1-cyclohexyl-3-(2-ethylhexyl)urea] | – | 19 | 12.6 | 20S proteasome stimulation relative to control (20S proteasome; 780 µM): 37%; Hyaluronic acid stimulation relative to control (Hyaluronic acid; 0.1 µM): 67%; Hyaluronic acid stimulation relative to control (Hyaluronic acid; 0.5 µM): 51%; Hyaluronic acid stimulation relative to control (Hyaluronic acid; 5 µM): 39%; inhibition at 20 µM ([2]; 0.02 mM): 20.4%; inhibition at 200 µM ([2]; 0.2 mM): 95.3%; HO-1 up-regulation relative to control (Heme oxygenase-1; 250 µM): 10.2-fold
4 | CC(C)(C)c1cc(O)ccc1O [tert.-butylhydrochinon, tert.- butylhydrochinon, reference compound] | – | – | – | HO-1 up-regulation relative to control (Heme oxygenase-1; 25 µM): 24.2-fold
5 | CCC(C)NC(=O)NC1CCCCC1 (stereo not drawn) [Compound 2, 1-cyclohexyl-3-sec-butyl-urea] | 105 | 57 | 290 | –
6 | O=c1cc(CO)occ1O [Kojic acid, 5-hydroxy-2-hydroxymethyl-4-pyranone, reference compound] | – | – | 452 | –
7 | 1,3-bis(2-methylcyclohexyl)urea [Compound 7] | 85 | – | – | –
8 | CC(C)CN(C)C(=O)NC1CCCCC1 [Compound 6, 3-cyclohexyl-(1-iso-butyl-1-methyl)-urea] | – | – | – | 20S proteasome stimulation relative to control (20S proteasome; 23.5 µM): 39%
9 | C[C@@H]1CCCC[C@H]1NC(=O)NCC1CCCCC1 (relative stereo) [Compound 4, 1-(cyclohexylmethyl)-3-(trans-2-methylcyclohexyl) urea] | – | – | 14.6 | –
10 | CCCCCCNC(=O)NC1CCCCC1 [Compound 3, 1-cyclohexyl-3-hexyl-urea] | – | – | 18 | –
